The target of assay [1] is T1, Proteinase-activated receptor 1 (Homo sapiens) (UniProt P25116).
T1 sequence (whole entry): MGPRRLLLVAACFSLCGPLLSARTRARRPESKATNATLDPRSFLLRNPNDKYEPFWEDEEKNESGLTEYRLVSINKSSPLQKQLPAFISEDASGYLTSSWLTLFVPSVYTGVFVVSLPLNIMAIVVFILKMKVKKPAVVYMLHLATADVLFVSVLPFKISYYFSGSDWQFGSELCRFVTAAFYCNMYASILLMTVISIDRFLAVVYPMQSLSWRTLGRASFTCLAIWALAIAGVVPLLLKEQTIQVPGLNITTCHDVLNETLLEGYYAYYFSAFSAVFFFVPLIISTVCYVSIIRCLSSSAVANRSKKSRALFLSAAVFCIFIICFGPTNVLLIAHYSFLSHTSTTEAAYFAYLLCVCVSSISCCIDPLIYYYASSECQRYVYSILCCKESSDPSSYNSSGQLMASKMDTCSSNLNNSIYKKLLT
Put plainly: Antagonist activity at PAR1 receptor assessed as inhibition of PAR1AP-induced platelet aggregation in human blood after 10 mins by chronolog dual channel aggregometry. The class given is functional.

Assay [2] addresses T2, Proteinase-activated receptor 1 (Rattus norvegicus) (UniProt P26824).
T2 sequence (whole entry): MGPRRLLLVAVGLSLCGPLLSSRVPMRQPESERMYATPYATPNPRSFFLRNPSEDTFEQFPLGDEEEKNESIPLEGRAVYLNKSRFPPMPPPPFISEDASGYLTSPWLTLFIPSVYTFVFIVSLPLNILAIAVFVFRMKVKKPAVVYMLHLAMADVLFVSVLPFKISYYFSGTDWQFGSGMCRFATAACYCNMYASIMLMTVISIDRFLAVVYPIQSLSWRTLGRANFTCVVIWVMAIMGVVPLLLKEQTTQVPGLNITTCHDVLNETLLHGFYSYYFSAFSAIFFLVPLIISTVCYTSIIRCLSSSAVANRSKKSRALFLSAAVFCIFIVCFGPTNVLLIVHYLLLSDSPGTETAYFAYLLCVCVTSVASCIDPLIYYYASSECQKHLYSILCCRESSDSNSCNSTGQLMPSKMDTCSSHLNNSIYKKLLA
Put plainly: Antagonist activity at PAR1 receptor assessed as reduction of PAR1AP-induced aortic ring contraction in Wistar rat at 10 to 100 uM after 15 mins. The class given is functional.

Molecules are shown by their SMILES. Active and inactive are the calls of the source. No cut-off for these calls is given here.

This is an account of results in ChEMBL document CHEMBL1150383, “Synthesis and pharmacological evaluation of peptide-mimetic protease-activated receptor-1 antagonists containing novel heterocyclic scaffolds” (Bioorg Med Chem, 2008).

For the compound `Cc1c(CN2CCCC2)c2cc(NC(=O)N[C@@H](Cc3ccc(F)c(F)c3)C(=O)N[C@@H](CCCNC(=N)N)C(=O)NCc3ccccc3)ccc2n1Cc1c(Cl)cccc1Cl`, the result in assay [1] and in assay [2] was inactive.

Regarding `Cc1c(CN2CCCC2)c2cc(NC(=O)N[C@@H](Cc3ccc4ccccc4c3)C(=O)N[C@@H](CCCNC(=N)N)C(=O)NCc3ccccc3)ccc2n1Cc1c(Cl)cccc1Cl`, the result in assay [1] and in assay [2] was inactive.

For `COc1ccc(C[C@H](NC(=O)Nc2ccc3c(CN4CCCC4)cn(Cc4c(Cl)cccc4Cl)c3c2)C(=O)N[C@@H](CCCNC(=N)N)C(=O)NCc2ccccc2)cc1`, the concentration for an effect of 75% (IC75) (usually the concentration at which the effect reaches the 75% level) in assay [1] came out at 100 nM. The Activity in assay [2] was 94 dyn/mg.

On to `Cc1c(CN2CCCC2)c2ccc(NC(=O)N[C@@H](Cc3ccc4ccccc4c3)C(=O)N[C@@H](CCCNC(=N)N)C(=O)NCc3ccccc3)cc2n1Cc1c(Cl)cccc1Cl`, for which the IC75 in assay [1] was determined as 800 nM. Besides, the result in assay [2] was Active.

Consider `Cc1c(CN2CCCC2)c2ccc(NC(=O)N[C@@H](Cc3ccc(F)c(F)c3)C(=O)N[C@@H](CCCNC(=N)N)C(=O)NCc3ccccc3)cc2n1Cc1c(Cl)cccc1Cl`, for which the 75% effect concentration (IC75) in assay [1] turned out to be 50 nM. Besides, the Activity in assay [2] is 31 dyn/mg.

Regarding `COc1ccc(C[C@H](NC(=O)Nc2ccc3c(c2)c(CN2CCCC2)c(C)n3Cc2c(Cl)cccc2Cl)C(=O)N[C@@H](CCCNC(=N)N)C(=O)NCc2ccccc2)cc1`, the result in assay [1] and in assay [2] was inactive.

Turning to `Cc1c(CN2CCCC2)c2cc(NC(=O)N[C@@H](Cc3cccc4ccccc34)C(=O)N[C@@H](CCCNC(=N)N)C(=O)NCc3ccccc3)ccc2n1Cc1c(Cl)cccc1Cl`, the outcome in assay [1] and in assay [2] was inactive.

For the compound `COc1ccc(C[C@H](NC(=O)Nc2ccc3c(CN4CCCC4)c(C)n(Cc4c(Cl)cccc4Cl)c3c2)C(=O)N[C@@H](CCCNC(=N)N)C(=O)NCc2ccccc2)cc1`, in assay [1], the IC75 amounted to 20 nM. The result in assay [2] was Active.
